Legend:
DPP-IV = biological target: T1, DPP-IV (Homo sapiens, UniProt P27487); test: Active inhibition DPP-IV assay (Gly-Pro-AMC substrate, fluorescence); type: biochemical; details: Gly-Pro-AMC 10 μM, 25 mM Tris pH 8.0
T1 construct: purchased R&D 1180-SE
Protocol: (§1) The following methods were used for testing the inhibitive action of the compound disclosed herein against DPP-IV, DPP-8 and DPP-9 enzymatic activity. The inhibitive ability of the compound disclosed herein against enzymatic activity of DPP-IV, DPP-8 and DPP-9 was tested. The measurements of the inhibition ratio or the 50% inhibiting concentration IC50 of every compound were based on a fixed quantity of enzyme-substrate mixtures and different concentrations of the test compounds.
DPP-IV enzyme was purchased from R&D, Catalog No. 1180-SE.
(§2) The test compound was dissolved in an appropriate amount of DMSO to prepare 100 mM mother liquor, which was divided into EP tubes and preserved at −20° C. The mother liquor was diluted with an assay buffer to prepare solutions with required concentrations. Sample solutions with different concentrations (4 μL) and certain concentration of DPP-IV (DPP-8 or DPP-9) solution (4 μL) were added into 384-well plates in turn. Referred to the instruction manual, Gly-Pro-AMC was selected as a substrate and the concentration thereof was 10 μM. The 16 mM mother liquor was prepared from the substrate and preserved at −20° C. for use. The 16 mM mother liquor was diluted with an assay buffer to a solution of known concentration. The assay buffer of DPP-IV was 25 mM Tris, and its pH was 8.0. The assay buffers of DPP-8 and DPP-9 were 50 mM Tris, and their pH was 7.5. The substrate mother liquor was diluted with an assay buffer, and the mixture (4 μL) was added into 384-well plates to prepare final solution concentration. The whole process was carried out in an ice bath. After the addition of the components of the assay system was completed, the system was centrifuged. The supernatant was then transferred to an Infinite F200 multifunctional microplate reader, and 20 fluorescence values were recorded every 30 sec. And then Slope (V0) was calculated directly by the software of microplate reader, fetching the data in the linear range. The measured reaction rate and the corresponding inhibition concentration were analyzed. Percent inhibition is I(%)=(V0−Vi)/V0×100%. Vi represents the initial reaction rate at different inhibition concentrations. V0 represents the initial reaction rate without inhibitor. Vi/V0 represents the inhibition level of inhibitor. Relevant curve chart was made with inhibition concentration as a horizontal coordinate and the value of Vi/V0 as a vertical coordinate. The IC50 values were calculated by Graph Pad Prism statistical analysis software.

DPP-8 = biological target: T2, DPP-8 (Homo sapiens, UniProt Q6V1X1); test: Active inhibition DPP-8 assay (Gly-Pro-AMC substrate, fluorescence); type: biochemical; details: Gly-Pro-AMC 10 μM, 50 mM Tris pH 7.5
T2 construct: purchased Biomol SE-827
T2 sequence (Q6V1X1 whole entry): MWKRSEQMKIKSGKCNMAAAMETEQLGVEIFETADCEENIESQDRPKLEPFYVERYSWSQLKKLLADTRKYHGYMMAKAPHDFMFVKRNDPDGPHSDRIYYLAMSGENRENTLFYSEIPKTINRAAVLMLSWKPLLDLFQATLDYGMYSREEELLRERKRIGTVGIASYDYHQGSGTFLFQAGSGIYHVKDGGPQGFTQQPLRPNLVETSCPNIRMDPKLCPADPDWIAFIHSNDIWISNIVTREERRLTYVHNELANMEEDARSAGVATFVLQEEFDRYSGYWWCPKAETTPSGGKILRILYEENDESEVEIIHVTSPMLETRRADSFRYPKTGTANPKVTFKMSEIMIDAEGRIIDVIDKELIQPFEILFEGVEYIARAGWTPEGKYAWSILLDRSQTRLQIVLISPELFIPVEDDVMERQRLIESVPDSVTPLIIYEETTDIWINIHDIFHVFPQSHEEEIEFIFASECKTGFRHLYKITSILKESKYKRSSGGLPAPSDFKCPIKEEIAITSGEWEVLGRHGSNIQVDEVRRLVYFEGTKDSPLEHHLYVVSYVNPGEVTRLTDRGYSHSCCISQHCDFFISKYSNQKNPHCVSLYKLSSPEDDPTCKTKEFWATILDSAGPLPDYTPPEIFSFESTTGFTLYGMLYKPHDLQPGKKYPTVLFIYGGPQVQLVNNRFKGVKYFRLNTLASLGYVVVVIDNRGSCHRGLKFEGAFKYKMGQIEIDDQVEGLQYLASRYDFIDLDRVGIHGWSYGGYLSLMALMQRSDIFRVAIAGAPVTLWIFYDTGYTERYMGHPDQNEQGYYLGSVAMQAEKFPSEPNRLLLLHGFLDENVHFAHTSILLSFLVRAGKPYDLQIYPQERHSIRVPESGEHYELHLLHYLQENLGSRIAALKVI
Protocol: as §1
DPP-8 enzyme was purchased from Biomol, Catalog No. SE-827.
as §2

DPP-9 = biological target: T3, DPP-9 (Homo sapiens, UniProt Q86TI2); test: Active inhibition DPP-9 assay (Gly-Pro-AMC substrate, fluorescence); type: biochemical; details: Gly-Pro-AMC 10 μM, 50 mM Tris pH 7.5
T3 construct: purchased Bioscience 80090
T3 sequence (Q86TI2 whole entry): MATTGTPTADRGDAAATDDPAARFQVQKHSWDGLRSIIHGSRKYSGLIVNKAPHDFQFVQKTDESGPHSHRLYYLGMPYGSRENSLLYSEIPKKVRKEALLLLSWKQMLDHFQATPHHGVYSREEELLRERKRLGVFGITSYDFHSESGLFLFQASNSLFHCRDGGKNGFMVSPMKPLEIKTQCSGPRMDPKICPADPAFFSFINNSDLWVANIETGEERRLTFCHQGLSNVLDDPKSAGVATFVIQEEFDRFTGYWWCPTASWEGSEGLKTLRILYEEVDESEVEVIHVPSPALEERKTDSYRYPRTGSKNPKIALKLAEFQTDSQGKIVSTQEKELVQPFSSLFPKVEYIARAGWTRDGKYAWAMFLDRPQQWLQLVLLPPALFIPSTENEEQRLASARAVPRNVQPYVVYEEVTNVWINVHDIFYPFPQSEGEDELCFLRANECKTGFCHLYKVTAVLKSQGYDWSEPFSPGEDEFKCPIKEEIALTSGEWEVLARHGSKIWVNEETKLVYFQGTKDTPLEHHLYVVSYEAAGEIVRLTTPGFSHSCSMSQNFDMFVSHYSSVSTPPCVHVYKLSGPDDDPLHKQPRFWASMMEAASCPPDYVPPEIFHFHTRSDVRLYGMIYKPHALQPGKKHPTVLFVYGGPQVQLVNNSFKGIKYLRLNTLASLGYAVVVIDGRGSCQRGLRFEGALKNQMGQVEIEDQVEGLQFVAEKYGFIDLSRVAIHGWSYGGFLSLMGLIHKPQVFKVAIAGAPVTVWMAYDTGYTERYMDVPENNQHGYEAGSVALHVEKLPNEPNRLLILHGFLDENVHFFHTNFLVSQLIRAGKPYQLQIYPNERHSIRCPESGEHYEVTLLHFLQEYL
Protocol: as §1
DPP-9 enzyme was purchased from Bioscience, Catalog No. 80090.
as §2

normal C57BL/6 mice = test: Effects of DPP-IV inhibitors on the blood glucose of normal C57BL/6 mice (oral glucose tolerance); type: in vivo; details: oral 5 mg/kg; for Nor-sugar rate % (5 mg/kg): male C57BL/6 mice, glucose 2.5 g/kg by gavage 30 min after administration; for hypoglycemic activities for C57BL/6 mice: conclusion in words
Protocol: The effects of the test compounds on the oral glucose tolerance of normal C57BL/6 mice were observed, and the hypoglycemic activities of these compounds in vivo were evaluated preliminarily.
Preparation procedure: Drugs were accurately weighed, and 5 mg of compounds of examples 3, 9 15, 16 and 17 were dissolved respectively in 20 mL of normal saline to obtain 0.25 mg/mL solutions.
Administrated Dose: The oral dose was 5 mg/kg and the gavage dose was 0.02 mL/g.
Test Method: The normal male C57BL/6 mice were grouped randomly into a blank control group, a positive control group, and treatment groups having 7 mice each group.
Administration and Serum Glucose Determination: C57BL/6 mice of each group were fasted for 18 hours before the experiment. The blood was drawn from the caudal vein of the mice and the glucose level was measured by using a blood-glucose meter. After detection, 0.25 mg/mL of positive control, 0.25 mg/mL of examples 3, 9, 15, 16 and 17 and normal saline were respectively administered to the positive control group, treatment groups and blank control group by intragastric administration. The blood glucose level (0 min) of positive control group was measured in 60 min after administration. The blood glucose levels (0 min) of the other groups were measured in 30 min after administration, and then glucose (2.5 g/kg) was administered to the mice through gavage. The blood was drawn from the caudal vein of the mice in 15 min, 30 min, 45 min, 60 min, 120 min after administration. The blood glucose levels of C57BL/6 mice were measured continuously by blood-glucose meter.
1. Glucose concentration-time curve was plotted, and AUC from 0 to 120 min and hypoglycemic rate of each dosage group at blood glucose peak were calculated.
2. Experimental data were represented in x±SD. The data were analyzed by SPSS 16.0 software. The data were compared between multiple groups using nonparametric Kruskal-Wallis H test method.

T1 sequence (P27487 whole entry): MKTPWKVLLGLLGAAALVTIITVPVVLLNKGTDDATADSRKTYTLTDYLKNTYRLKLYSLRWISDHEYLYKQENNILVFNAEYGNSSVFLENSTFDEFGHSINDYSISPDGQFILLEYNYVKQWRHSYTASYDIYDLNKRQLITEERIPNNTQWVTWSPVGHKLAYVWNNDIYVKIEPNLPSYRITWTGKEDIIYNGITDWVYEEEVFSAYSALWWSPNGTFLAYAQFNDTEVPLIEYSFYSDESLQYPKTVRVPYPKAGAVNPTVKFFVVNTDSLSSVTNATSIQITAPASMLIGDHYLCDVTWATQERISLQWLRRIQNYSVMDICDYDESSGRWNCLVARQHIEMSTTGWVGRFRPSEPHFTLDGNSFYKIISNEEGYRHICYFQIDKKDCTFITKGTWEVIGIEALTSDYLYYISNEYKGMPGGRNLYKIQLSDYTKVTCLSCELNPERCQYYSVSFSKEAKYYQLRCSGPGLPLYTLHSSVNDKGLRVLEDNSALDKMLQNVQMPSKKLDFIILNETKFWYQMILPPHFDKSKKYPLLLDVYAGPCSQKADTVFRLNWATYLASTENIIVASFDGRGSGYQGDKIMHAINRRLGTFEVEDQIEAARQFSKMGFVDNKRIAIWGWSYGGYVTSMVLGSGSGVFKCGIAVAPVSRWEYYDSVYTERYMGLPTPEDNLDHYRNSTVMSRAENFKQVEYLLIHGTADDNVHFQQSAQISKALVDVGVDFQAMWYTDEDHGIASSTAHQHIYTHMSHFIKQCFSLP

Compound | IC50 (DPP-IV) [µM] | IC50 (DPP-8) [µM] | IC50 (DPP-9) [µM] | Nor-sugar rate % (5 mg/kg) (normal C57BL/6 mice) [%] | hypoglycemic activities for C57BL/6 mice (normal C57BL/6 mice)
C[C@@]1(NCC(=O)N2C[C@@H](F)C[C@H]2C#N)C[C@H]2C[C@H](O)C[C@H]2C1 [Example 9, (2S,4S)-4-fluoro-1-(2-(((2r,3aR,5R,6aS)-5-hydroxy-2-methyloctahydropentalen-2-yl)amino)acetyl)pyrrolidine-2-carbonitrile] | 0.00401 | 2.85 | 0.029 | 18.7 | good hypoglycemic activities
CO[C@@H]1C[C@@H]2CC(NCC(=O)N3C[C@@H](F)C[C@H]3C#N)C3(CC3)[C@@H]2C1 (stereo partly drawn) [Example 11, (2S,4S)-4-fluoro-1-(2-(((3a′S,5′R,6a′R)-5′-methoxyhexahydro-2′H-spiro[cyclopropane-1,1′-pentalen]-2′-yl)amino)acetyl)pyrrolidine-2-carbonitrile] | 0.105 | 14.2 | 0.916 | – | –
CC(=O)O[C@@H]1C[C@@H]2C[C@@](C)(NCC(=O)N3C[C@@H](F)C[C@H]3C#N)C[C@@H]2C1 [Example 17, (2S,3aR,5r,6aS)-5-((2-((2S,4S)-2-cyano-4-fluoropyrrolidin-1-yl)-2-oxoethyl)amino)-5-methyloctahydropentalen-2-yl acetate] | 0.00272 | 3.7 | 0.048 | 30.4 | good hypoglycemic activities
CC(=O)O[C@@H]1C[C@@H]2C[C@@](C)(NCC(=O)N3CCC[C@H]3C#N)C[C@@H]2C1 [Example 18, (2S,3aR,5r,6aS)-5-((2-((S)-2-cyanopyrrolidin-1-yl)-2-oxoethyl)amino)-5-methyloctahydropentalen-2-yl acetate] | 0.00253 | 20.1 | 0.242 | – | –
C#CC1C[C@@H]2C[C@@](C)(NCC(=O)N3C[C@@H](F)C[C@H]3C#N)C[C@@H]2C1 (stereo partly drawn) [Example 20, (2S,4S)-1-(2-(((2s,3aR,6aS)-5-ethynyl-2-methyloctahydropentalen-2-yl)amino)acetyl)-4-fluoropyrrolidine-2-carbonitrile] | 0.00418 | 2.07 | 0.091 | – | –

More lines, in order of falling IC50 (DPP-IV), values ahead:

IC50 (DPP-IV) [µM] | IC50 (DPP-8) [µM] | IC50 (DPP-9) [µM] | Compound | Nor-sugar rate % (5 mg/kg) (normal C57BL/6 mice) [%] | hypoglycemic activities for C57BL/6 mice (normal C57BL/6 mice)
0.00249 | 3.92 | 0.093 | C[C@@]1(NCC(=O)N2C[C@@H](F)C[C@H]2C#N)C[C@H]2C[C@@H](O)C[C@H]2C1 [Example 3, (2S,4S)-4-fluoro-1-(2-(((2r,3aR,5S,6aS)-5-hydroxy-2-methyloctahydropentalen-2-yl)amino)acetyl)pyrrolidine-2-carbonitrile] | 35.96 | –
0.00243 | 5.98 | 0.062 | CO[C@H]1C[C@@H]2C[C@@](C)(NCC(=O)N3CCC[C@H]3C#N)C[C@@H]2C1 [Example 10, (S)-1-(2-(((2r,3aR,5R,6aS)-5-methoxy-2-methyloctahydropentalen-2-yl)amino)acetyl)pyrrolidine-2-carbonitrile] | – | –
0.00156 | 1.26 | 0.02 | C[C@@]1(NCC(=O)N2C[C@@H](F)C[C@H]2C#N)C[C@H]2CC(C#N)C[C@H]2C1 (stereo partly drawn) [Example 15, (2S,4S)-1-(2-(((2s,3aR,6aS)-5-cyano-2-methyloctahydropentalen-2-yl)amino)acetyl)-4-fluoropyrrolidine-2-carbonitrile] | 24.72 | good hypoglycemic activities
0.00137 | 12.8 | 0.34 | C[C@@]1(NCC(=O)N2CCC[C@H]2C#N)C[C@H]2CC(C#N)C[C@H]2C1 (stereo partly drawn) [Example 16, (2S)-1-(2-(((2s,3aR,6aS)-5-cyano-2-methyloctahydropentalen-2-yl)amino)acetyl)pyrrolidine-2-carbonitrile] | 24.69 | good hypoglycemic activities
